Columns and labels:
[1] = target: VIM-1 (Pseudomonas aeruginosa (strain ATCC 15692 / DSM 22644 / CIP 104116 / JCM 14847 / LMG 12228 / 1C / PRS 101 / PAO1), UniProt A0A0F7KYQ8); assay: biochemical; conditions: CCF2-FA substrate, 2 hours at 25° C
In short: (§1)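 Fluorescence assay of metallo-β-lactamase activity using CCF2-FA, a cephalosporin-linked 7-hydroxycoumarin–fluorescein substrate. Inhibitor, enzyme and substrate were incubated together for 2 hours at 25° C. IC50 came from a 4-parameter fit of inhibition versus inhibitor concentration.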

[2] = system: Serratia marcescens expressing IMP-1 (CL5741); type: cell-based; conditions: with imipenem 1 μg/ml; 95% inhibition of bacterial growth
In short: (§2)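 Clinical strains grown overnight on blood agar, then diluted 1:100 in 1.1× CAMHB and exposed to test compound with imipenem at 1 μg/ml. Incubation was 22–24 h at 35° C; growth was read by absorbance to find the compound concentration restoring imipenem susceptibility.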

[3] = system: Escherichia coli expressing NDM-1 (CLB30005, CLB30016); type: cell-based; conditions: with imipenem 1 μg/ml; 95% inhibition of bacterial growth
In short: as §2

[4] = system: Klebsiella pneumoniae expressing VIM-1 (IHMA599644); type: cell-based; conditions: with imipenem 1 μg/ml; 95% inhibition of bacterial growth
In short: as §2

[5] = system: P. aeruginosa expressing IMP-1, efflux+ (MB9798); type: cell-based, Pseudomonas aeruginosa; conditions: for P. aeruginosa expressing IMP-1, efflux+ (MB9798) MITC95: imipenem at 2 μg/mL, in the presence of a class A, C, D serine β-lactamase inhibitor closely related to relebactam; for Efflux ratio: ratio MITC95 PA_9798/MITC95 PA_9799
From the text: (§3) The strain background is Pseudomonas aeruginosa PAO1.

[6] = system: P. aeruginosa expressing IMP-1, efflux− (MB9799); assay: Efflux: concentration of MBL inhibitor which restores susceptibility to imipenem; type: cell-based, Pseudomonas aeruginosa; conditions: imipenem at 2 μg/mL, in the presence of a class A, C, D serine β-lactamase inhibitor closely related to relebactam
From the text: as §3

[7] = target: NDM-1 (Klebsiella pneumoniae, UniProt C7C422); assay: biochemical; type: biochemical; conditions: CCF2-FA substrate, 2 hours at 25° C; read-out: NDM-1 IC50
In short: as §1

[8] = target: IMP-1 (Serratia marcescens, UniProt P52699); assay: biochemical; type: biochemical; conditions: CCF2-FA substrate, 2 hours at 25° C; read-out: IMP-1 IC50
In short: as §1

Chain of IMP-1 (P52699 whole entry, looked up, species assumed): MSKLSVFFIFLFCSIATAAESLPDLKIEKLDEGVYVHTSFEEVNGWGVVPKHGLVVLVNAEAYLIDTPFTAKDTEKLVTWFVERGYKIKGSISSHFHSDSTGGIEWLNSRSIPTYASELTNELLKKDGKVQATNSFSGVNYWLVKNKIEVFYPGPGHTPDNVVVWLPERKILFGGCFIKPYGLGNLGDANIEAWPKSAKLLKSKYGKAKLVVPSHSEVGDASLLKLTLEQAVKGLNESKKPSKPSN
Chain of NDM-1 (C7C422 whole entry, looked up, species assumed): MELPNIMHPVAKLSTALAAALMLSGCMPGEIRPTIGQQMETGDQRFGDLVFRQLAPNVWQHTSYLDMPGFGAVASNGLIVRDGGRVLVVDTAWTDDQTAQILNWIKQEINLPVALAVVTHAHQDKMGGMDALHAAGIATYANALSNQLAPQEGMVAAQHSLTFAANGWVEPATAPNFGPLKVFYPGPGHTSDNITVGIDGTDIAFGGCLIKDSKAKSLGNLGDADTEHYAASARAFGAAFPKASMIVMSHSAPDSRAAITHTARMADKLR

Structure (SMILES)	IC50 [1] [pM]	Serratia marcescens expressing IMP-1 (CL5741) MITC95 [2] [µM]	Escherichia coli expressing NDM-1 (CLB30016) MITC95 [3] [µM]	Klebsiella pneumoniae expressing VIM-1 (IHMA599644) MITC95 [4] [µM]	P. aeruginosa expressing IMP-1, efflux+ (MB9798) MITC95 [5] [µM]	Efflux ratio [5]	P. aeruginosa expressing IMP-1, efflux− (MB9799) MITC95 [6] [µM]	IC50 [7] [pM]	IC50 [8] [pM]
NS(=O)(=O)c1c(S(=O)(=O)C2CNC2)ccc(-c2ccc3ncnn3c2)c1-c1nnn[nH]1.O=C(O)C(F)(F)F [Example 104, 3-((4-([1,2,4]triazolo[1,5-a]pyridin-6-yl)-2-sulfamoyl-3-(1H-tetrazol-5-yl)phenyl)sulfonyl)azetidin-1-ium 2,2,2-trifluoroacetate]	699	6.25	3.125	3.125	12.5	8.00	1.563	2090	3530
NS(=O)(=O)c1c(S(=O)(=O)C2CNC2)ccc(-c2cncnc2)c1-c1nnn[nH]1.O=C(O)C(F)(F)F [Example 110, 3-((4-(pyrimidin-5-yl)-2-sulfamoyl-3-(1H-tetrazol-5-yl)phenyl)sulfonyl)azetidin-1-ium 2,2,2-trifluoroacetate]	3470	1.563	1.563	3.125	25	15.99	1.563	4790	13200
Nc1cncc(-c2ccc(S(=O)(=O)C3CNC3)c(S(N)(=O)=O)c2-c2nnn[nH]2)c1.O=C(O)C(F)(F)F [Example 112, 3-((4-(5-aminopyridin-3-yl)-2-sulfamoyl-3-(1H-tetrazol-5-yl)phenyl)sulfonyl)azetidin-1-ium 2,2,2-trifluoroacetate]	1790	3.125	3.125	6.25	12.5	4.00	3.125	2510	8680
NS(=O)(=O)c1c(S(=O)(=O)C2CNC2)ccc(-c2cccc3c2CNC3=O)c1-c1nnn[nH]1.O=C(O)C(F)(F)F [Example 113, 3-((4-(1-oxoisoindolin-4-yl)-2-sulfamoyl-3-(1H-tetrazol-5-yl)phenyl)sulfonyl)azetidin-1-ium 2,2,2-trifluoroacetate]	164	3.125	1.563	6.25	12.5	8.00	1.563	137	6060
NS(=O)(=O)c1c(S(=O)(=O)C2CNC2)ccc(-c2ccc3scnc3c2)c1-c1nnn[nH]1.O=C(O)C(F)(F)F [Example 114, 3-((4-(benzo[d]thiazol-5-yl)-2-sulfamoyl-3-(1H-tetrazol-5-yl)phenyl)sulfonyl)azetidin-1-ium 2,2,2-trifluoroacetate]	116	0.7813	0.3906	1.563	6.25	8.00	0.7813	150	260
NS(=O)(=O)c1c(S(=O)(=O)C2CNC2)ccc(-c2ccc3ncccc3c2)c1-c1nnn[nH]1.O=C(O)C(F)(F)F [Example 115, 3-((4-(quinolin-6-yl)-2-sulfamoyl-3-(1H-tetrazol-5-yl)phenyl)sulfonyl)azetidin-1-ium 2,2,2-trifluoroacetate]	276	3.125	3.125	3.125	12.5	8.00	1.563	236	793
NS(=O)(=O)c1c(S(=O)(=O)C2CNC2)ccc(-c2ccc3cnccc3c2)c1-c1nnn[nH]1.O=C(O)C(F)(F)F [Example 116, 3-((4-(isoquinolin-6-yl)-2-sulfamoyl-3-(1H-tetrazol-5-yl)phenyl)sulfonyl)azetidin-1-ium 2,2,2-trifluoroacetate]	177	3.125	1.563	3.125	25	15.99	1.563	199	722
NS(=O)(=O)c1c(S(=O)(=O)C2CNC2)ccc(-c2ccc3nccnc3c2)c1-c1nnn[nH]1.O=C(O)C(F)(F)F [Example 117, 3-((4-(quinoxalin-6-yl)-2-sulfamoyl-3-(1H-tetrazol-5-yl)phenyl)sulfonyl)azetidin-1-ium 2,2,2-trifluoroacetate]	431	3.125	6.25	6.25	25	15.99	1.563	930	1410
NS(=O)(=O)c1c(S(=O)(=O)C2CNC2)ccc(-c2cccc3ncccc23)c1-c1nnn[nH]1.O=C(O)C(F)(F)F [Example 118, 3-((4-(quinolin-5-yl)-2-sulfamoyl-3-(1H-tetrazol-5-yl)phenyl)sulfonyl)azetidin-1-ium 2,2,2-trifluoroacetate]	388	6.25	3.125	6.25	12.5	4.00	3.125	145	1420
Cn1nnc2ccc(-c3ccc(S(=O)(=O)C4CNC4)c(S(N)(=O)=O)c3-c3nnn[nH]3)cc21.O=C(O)C(F)(F)F [Example 119, 3-((4-(1-methyl-1H-benzo[d][1,2,3]triazol-6-yl)-2-sulfamoyl-3-(1H-tetrazol-5-yl)phenyl)sulfonyl)azetidin-1-ium 2,2,2-trifluoroacetate]	506	6.25	6.25	6.25	100	63.98	1.563	1800	5740
